From patent publication US7414068B2, “Benzopyran derivatives substituted with secondary amines including tetrazole, method for the preparation thereof and pharmaceutical compositions containing them” (Dongbu Hannong Chemical Co., Ltd., priority 2002, dated 2008) come the findings set out here.

One assay has as its system Sprague-Dawley Rat. Conditions: 30 mg/kg; for Infarction volume Medium(%): four times to abdominal cavity, 24 hours after operation. The protocol: Male rat (Sprague-Dawley Rat, 350±50 g, Samyook) was anesthetized by administration of Pentobarbital sodium 40 mg/Kg. PE-19 tubing was inserted to the femoral vein and the artery, left carotid artery was exposed. Before the operation, heparin sulfate 20 μg was injected to the peritoneal cavity. Blood pressure measuring device was inserted to the femoral artery for the continuous measurement of arterial pressure. Blood (10 ml) was collected from the femoral vein to decrease blood pressure to 30 mmHg. If blood pressure is not decreased to 100 mmHg by collection of blood (7 ml), it is evaluated that sympathetic tone is very high.
With blood pressure maintaining to be 30 mmHg, left carotid artery was closed by aneurysm clamp for 20 min to induce ischemia. Reperfusion was accomplished by the collected blood and 0.84% bicarbonate saline (5 ml). Body temperature of rats was constantly maintained to be 37±0.5° C., by using thermal blanket and incandescent light bulbs during the ischemia. After the operation, in recovering period, body temperature was constantly maintained for more than 2 hours. If rats were recovered entirely, they were transferred to animal laboratory. Condition of animal laboratory, such as temperature, humidity and light cycle was constantly maintained to be 27° C., 60% and […], respectively.
After 24 hours from the operation, rats were sacrificed. Then brain was enucleated from rat within 3 min. Enucleated brain was excised on the ice at the interval 2 mm by using brain matrix to produce six coronal sections. The said coronal sections were dyed in 2% 2,3,5-triphenyltetrazolium chloride solution at 37° C. for 30 min. The said dyed coronal section was developed and printed. Thereafter, the ratio of necrosis area to brain area was measured by using Image Analyzer.
Otherwise, test compounds were four times administrated to abdominal cavity at a dose 30 mg/kg. […]
The protective effect on brain damage induced by brain ischemia-reperfusion was evaluated by calculating reduction of necrosis area to that of brain for a control group.

A further assay relates to diabetic rats. The experiment in a line: Effect on motor nerve conduction velocity in diabetic rats. It is filed as in vivo, rat. Conditions: 50 mg/kg orally once a day. The protocol: Diabetes was induced with injection of Streptozotocin (65 mg/kg) in rats, then test compounds dissolved in 2 ml of media (physiological saline:ethanol:tween 80=1:1:1) were orally administrated once a day. Rats were anesthetized with pentotal, then the sciatic nerve was exposed to measure motor nerve conduction velocity. The nerve was stimulated at two points. The first stimulus electrode was inserted at proximal end, and second electrode stimulus electrode was inserted at the distal notch. The coaxia needle electrode was inserted into interdigitala muscle, then the muscle action potential induced by two points stimulation. The conduction velocity was calculated by dividing the distance between two stimulus points by the latency differences. Lipoic acid (100 mg/kg) was used in comparison with the compound of the present invention in recovery of impaired Motor Nerve Conduction Velocity (MNCV) in diabetic rats. The recovery (%) of Motor Nerve Conduction was calculated according to the following mathematical formula 1.

For assay [1], the system named is isolated ischemic rat heart. The assay can be described thus: Cardioprotective effect in ischemic heart models of rats (Langendorff). Conditions: 10 μM. Put shortly: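 Langendorff-perfused male rat hearts (Krebs-Henseleit, 85 mmHg, 37 °C) pretreated 10 min with compound or vehicle (0.04% DMSO), then 30 min global ischemia and 30 min reperfusion. Read-outs: LVDP, HR, CF, rate-pressure product, time to contracture (first 5 mmHg EDP rise), LDH release.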

Structures are written as SMILES. Like-named read-outs stand apart in the source and are kept apart here.

For the molecule `COC(OC)[C@@]1(C)Oc2ccc(N)cc2[C@H](N(Cc2nnn(C)n2)c2ccc(Cl)cc2)[C@H]1O` [Example 11, (2S,3R,4S)-6-amino-4-[N-(4-chlorophenyl)-N-(2-methyl-2H-tetrazol-5-ylmethyl)amino]-3-hydroxy-2-methyl-2-dimethoxymethyl-3,4-dihydro-2H-1-benzopyran], the “Infarction volume Medium(%)” value in the assay on Sprague-Dawley Rat worked out at 21.5 ± 2.6%; in the assay on Sprague-Dawley Rat (listed as compound of formula 11), 21.5%. In addition, in the assay on Sprague-Dawley Rat (relative to control group), the “Infarction volume Decrease(%)” value is 46.3%. In addition, the “Recovery(%) of motor nerve conduction” value with diabetic rats is given as 45.8%. In the assay on diabetic rats (streptozotocin diabetic rats), this molecule showed an MNCV of 54 m/s. Also, in assay [1] (after 30 min global ischemia and reperfusion), the “EDP (mmHg)” value was 47.6 mmHg. Further, the “LDH (u/g)” value in assay [1] (reperfusion LDH release) is 16.5 u/g. In assay [1] (reperfusion, % of pre-treatment DP), the “LVDP X HR (%)” value is reported as 24.8%. The “TTC” value in assay [1] (time to contracture during global ischemia) is recorded as 19.9 min.
